Source: a melting point compilation (Tetko et al.; mined from patent text by program, amines drawn as free bases though some values may be those of a salt)

Row | melting point [°C] | Structure (SMILES)
1 | 158 to 160 | CCOC(=O)C(Cl)=Cc1cc(N(C(N)=S)c2cscc2C(=O)OC)ccc1Cl
2 | 98 to 100 | N#Cc1[nH]c(-c2ccc(Cl)cc2)c(Br)c1-c1ccc(Cl)cc1
3 | 120 to 122 | COc1cc2ncc(C#N)c(Nc3ccc(F)c(Cl)c3)c2cc1NC(=O)C=CCN1C(C)CCCC1C (stereo not given)
4 | 67 to 68 | CCCCN(CCCC)S(=O)(=O)c1ccc(Cl)c([N+](=O)[O-])c1
5 | 119 to 121 | CC(=CC#N)CN1C(=O)c2ccccc2S1(=O)=O
6 | 89 to 91 | COc1cccc(C2(CCCCC(=O)O)CCCCC2=O)c1 (stereo not given)
7 | 226 to 227 | COc1cc(C(C)C)c(Oc2cnc(N)nc2N)cc1C#CC1CC1
8 | 265 to 268 | Cc1ccc(C(=O)NN2CCOCC2)c(Nc2ccc3cn[nH]c3c2)n1
9 | 103 to 105 | CCOP(=O)(CCN1CCCCNc2c1c(=O)c2=O)OCC
10 | 265 to 268 | COC(=O)c1ccc2oc3c(c(=O)c2c1)CCC3=Cc1ccc(N)cc1
11 | 104 to 106 | COc1ccc(OCCCCCC(=O)O)c(C=O)c1
12 | 247 to 248 | O=C(Nc1ccccc1)N1CCc2cc(S(=O)(=O)N3CC(c4ccccc4)NC3=O)ccc21 (stereo not given)
13 | 189 to 190 | CC(C)c1cc(C=C2Sc3ccccc3N(Cc3nnn[nH]3)C2=O)cc(C(C)C)c1O
14 | 114 to 116 | NC(=O)NCCN1CCC(O[N+](=O)[O-])CC1
15 | 147 to 149 | CC(=O)NCCNc1nc(-c2ccc(=O)n(C(C)C)n2)c(-c2ccccc2)nc1N
16 | 140 | O=c1nc(-c2ccccc2C(F)(F)F)sc2ccccc12

Row | melting point [°C] | Structure (SMILES)
17 | 138 to 139 | COc1ccc(Br)cc1C12CC3CC(CC(C3)C1)C2
18 | 54 to 56 | CCCc1cc(I)ccc1O
19 | 193 to 195 | COc1ccc(C2Sc3ccccc3NC(=O)C2OC(C)=O)cc1 (stereo not given)
20 | 138 to 140 | CC(C)(C)c1cc(OCc2n[nH]c(=O)o2)cc(C(C)(C)C)c1O
21 | 36 to 41 | Cc1cccc([N+](=O)[O-])c1Br
22 | 211 to 212 | COc1ccc(-n2c(=O)n(OCc3ccccc3)c(=O)c3cc(F)c(F)cc32)cc1
23 | 84 to 85 | Cc1nn(C)c2nc(N(CC3CCC3)CC3CC3)c(CN(Cc3cc(C(F)(F)F)cc(C(F)(F)F)c3)c3nnn(C)n3)cc12
24 | 150 to 162 | CC1(C)SC2C(NC(=O)CNC(=O)NC(=N)Cc3ccc(Cl)cc3)C(=O)N2C1c1nnn[nH]1 (stereo not given)
25 | 147 | Cc1cc2c(cc1Br)C(O)(c1ccccn1)CC(C)(C)CO2 (stereo not given)
26 | 115 | C#Cc1ccc(N(c2ccc(C#C)cc2)c2ccc(C#C)cc2)cc1
27 | 151 to 154 | CCOC(=O)c1cnn(-c2ccccc2N)c1O
28 | 181 to 182 | COc1ccc(-c2cc3cc(F)c(F)cc3[nH]2)cc1NCc1ccc([N+](=O)[O-])cc1
29 | 107 to 108 | COCc1ccc(C(=O)NCC#N)cc1
30 | 191 to 193 | CCOC(=O)c1ccc(N2CCC(NCC(O)COc3cccc4[nH]c(=O)[nH]c34)CC2)nc1 (stereo not given)
31 | 126 to 127 | CCN(CC1CCCC1)c1nc2ccccc2cc1CN(Cc1cc(C(F)(F)F)cc(C(F)(F)F)c1)c1nnc(C)o1
32 | 136 | CC(SC1COC(c2ccc(C(=O)Nc3ccc(C#N)cc3F)cc2)OC1)C(O)(Cn1cncn1)c1ccc(F)cc1F (stereo not given)

Second part, the compound before the results:

Row | Structure (SMILES) | melting point [°C]
33 | CN(C(=O)[C@H]1C[C@H](C(=O)O)[C@@H](c2ccccc2F)N1C(=O)CNC(=O)Nc1cccc(CC(=O)O)c1)c1ccccc1 (racemic) | 164
34 | O=Cc1ccc(COC(=O)Nc2cccc3ccccc23)cc1 | 153 to 154
35 | CC(c1oc2ccccc2c(=O)c1-c1cccc(F)c1)n1nc(-c2cc(O)cc(Cl)c2)c2c(N)ncnc21 (stereo not given) | 122 to 124
36 | CC(C)(C)Nc1c(NCc2ccccc2F)c(=O)c1=O | 260 to 262
37 | CNC(=O)ON=C1n2ccnc2S(=O)C1(C)C (stereo not given) | 148 to 149
38 | CCSC1(Sc2ccccc2)CCC2C3CCC4=CC(=O)C=CC4(C)C3(F)C(OC(C)=O)CC21C (stereo not given) | 145 to 148
39 | COc1ccc2cc([C@H](C)C(=O)OCCO)ccc2c1 | 72 to 73
40 | C[C@@H](O[C@H]1CCCN(Cc2n[nH]c(=O)[nH]2)[C@H]1c1ccccc1)c1cccc(Br)c1 | 165
41 | Cc1[nH]cnc1CN1CCC(N)=CC1=O | 268 to 271
42 | C#Cc1ccc(I)c(Oc2cnc(N)nc2N)c1 | 156 to 159
43 | COC(=O)C(Oc1cc(OCc2ccc3ncoc3c2)ccc1C#N)c1ccccc1Cl (racemic) | 157 to 159
44 | Cc1nc(-c2ccc(C(F)(F)F)cc2)sc1CSc1ccc2oc(C(=O)O)cc2c1 | 207 to 209
45 | CCOC(=O)C1(c2ccccc2)CCN(C2CCC(C#N)(c3ccc(F)cc3C)CC2)CC1 (stereo not given) | 135
46 | COc1cccc(Oc2c(NS(=O)(=O)c3ccc(C(C)(C)C)cc3)ncnc2OCc2ccccn2)c1 | 206 to 208
47 | Cc1ccc2ccc(N3C(=O)c4ccccc4C3OC(=O)CCCC(C)C)nc2n1 (stereo not given) | 144
48 | O=S1(=O)Cc2cc(Cl)c(Cl)cc2C(c2ccc(F)cc2)=NN1 | 196 to 200
49 | O=C1NC(=O)C(Nc2ccc(CCNCC(O)COc3ccc(-c4ccccc4)cc3)cc2)S1 (stereo not given) | 70 to 71
50 | CC(c1ccc(-c2ccc(OCc3nc4ccccc4s3)cc2)c(F)c1)N(O)C(N)=O (stereo not given) | 185 to 186
51 | COC(=O)C(C)Oc1ccc(Oc2cnc3cc(Cl)c(Cl)cc3n2)cc1 (stereo not given) | 100 to 105
52 | OC(C=Cc1ccco1)c1cnc2sc3c(n12)CCCCC3 (stereo not given) | 177 to 180
53 | CC(CO)Oc1ccc2c(c1)c(-c1cc3cccnc3[nH]1)cn2C (stereo not given) | 164 to 165
54 | O=c1[nH]cc(Cc2ccncc2)c2ccccc12 | 189 to 190
55 | CCc1c(-c2ccc(OCc3ccccc3)cc2)cn2cccc(OCc3ccccc3)c12 | 104 to 105

Row | Structure (SMILES) | melting point [°C]
56 | CCc1c(OC)nc2nc(C#N)cn2c1C | 166 to 168
57 | COc1ccc(OCc2ccccc2)c2c1CN(Nc1ccncc1)CC2 | 151 to 152
58 | Cc1ccc(S(=O)(=O)OC2CCCC2)cc1 | < 30
59 | CCOC(=O)N1CCN(c2nc(NC(C)=O)ccc2[N+](=O)[O-])CC1 | 168 to 169
60 | COc1ccc(-c2nc(CNC(=O)OCc3ccccc3)sc2-c2cccnc2)cc1 | 93 to 94
61 | Oc1cc(Cl)c(-c2nnn[nH]2)cc1Oc1ccc(Cl)cc1Cl | 174 to 180
62 | Cc1snnc1SCC1=C(C(=O)OC(C)(C)C)N2C(=O)[C@@H](NC(=O)Cc3cccs3)[C@H]2SC1 | 155 to 157
63 | CCc1c(CC#N)ccc(OCc2ccccc2)c1OCc1ccccc1 | 44 to 47.5
64 | CN(C)CC(=O)N1c2cc(Cl)ccc2N(C)S(=O)(=O)c2ccccc21 | 175 to 176
65 | Nc1nc(F)nc2c1ncn2C1OC(COCc2ccccc2)C(OCc2ccccc2)C1OCc1ccccc1 (stereo not given) | 157 to 159
66 | COc1cncnc1OCc1ccc(C(C)(C)C)cc1 | 58 to 59
67 | COCCc1nc2c(N)nc3cc(-c4cncc(CO)c4)ccc3c2n1CC(C)C | 202 to 204
68 | O=C(c1ccc(Cl)c(Cl)c1)N1CCC(Br)C(c2ccccc2)=N1 (stereo not given) | 168 to 169
69 | N#Cc1nc(-c2cc(Cl)cc(Cl)c2Cl)c(N)nc1N | 277 to 279
70 | N#CNc1ccccc1I | 117 to 118
71 | COC1=C(OC)C(=O)C(CCCCCCCCCO)=C(C)C1=O | 45
72 | c1c(N2CCCC2)nc(N2CCNCC2)nc1N1CCCC1 | 152 to 160
73 | O=C(O)C1CCc2c(c3ccccc3n2C(=O)c2cccc(Br)c2)C1 (stereo not given) | 185 to 186
74 | c1ccc(OCCSCc2nnc(-c3ccc(OCCCN4CCCC4)cc3)o2)cc1 | 70
75 | CC(=O)NCCCC(=O)c1ccc(Cl)cc1CCC(=O)O | 90 to 92
76 | CCOC(=O)C1=C(C)N2CCNC2=C(C(=O)OCC)C1C (stereo not given) | 138
77 | CN(C(CCn1c(=O)[nH]c2cscc2c1=O)C(=O)NO)S(=O)(=O)c1ccc(Oc2ccccc2)cc1 (stereo not given) | 135 to 137
78 | Cc1cc(C)c2c(O)c(O)c(O)nc2c1 | 280 to 282

Row | Structure (SMILES) | melting point [°C]
79 | CCn1ncc2c1ncc1c(=O)n(C)c3cc(C)nn3c12 | 206 to 207
80 | CCCc1c(OCCCC(=O)NC(C)CCCc2cccnc2)ccc(C(C)=O)c1O (stereo not given) | 97 to 99
81 | CC(=O)Nc1ccc(-c2cccc(C3=NC(C)(C)Cc4cc(O)c5c(c43)CC(C)(C)O5)c2)cc1 | 185 to 189
82 | CC(CNC1CC(C)(C)NC(C)(C)C1)C(=O)NC1CC(C)(C)NC(C)(C)C1 (stereo not given) | 116
83 | COc1ccc(F)cc1C(C)(C)CC(=O)C(=O)O | 58 to 60
84 | CCCOc1ccc(OC)c(-c2csc(N)n2)c1 | 76
85 | CCC(=O)c1[nH]c2cc(Cl)ccc2c1N | 144 to 146
86 | CCOC(=O)OC1CCN(C(=O)Cn2c(=O)sc3ccc(Cl)cc32)CC1 | 196 to 197
87 | CC(C)CCCCNC(=O)n1sc2ccccc2c1=O | 49 to 51
88 | O=C(O)COc1ccc(SCc2ccc(OCc3ccc(Cl)c(C(F)(F)F)c3)cc2)c2c1CCC2 | 151 to 152
89 | CCCCCCCCCCCCNC(=O)CCNc1cccc(O)c1 | < 40
90 | CNC(=O)Nc1cc(C(Cl)(Cl)Cl)ccn1 | 192 to 195
91 | Nc1ncc(Oc2ccc(Cl)cc2)c(N2CCN(CCO)CC2)n1 | 121 to 123
92 | COc1ccc(-c2cccc(F)c2)cc1 | 63 to 64
93 | CC(=O)N1CCN=C1Nc1cccc2c1CCC2 | 180 to 182
94 | CC(C)COc1ccc(C(=O)N/C(=C\c2ccc(OC(F)F)cc2)C(=O)NCCO)cc1 | 75 to 78
95 | C/C(CCN1CCCC1c1ccc(Cl)c(Cl)c1)=N\O (stereo not given) | 145 to 147
96 | O=C(OCc1ccccc1)c1ncoc1CCNC(=O)[C@H](O)Cc1ccccc1 | 106 to 108
97 | CCCCCCCCCCCCCCCCCCNC(=O)CC[Si](OCC)(OCC)OCC | 50 to 52
98 | NC(=O)c1n[nH]c2ccccc12 | 284 to 286
99 | OCCCC#Cc1cnc(-c2ccccc2)c(-c2ccccc2)n1 | 88 to 90
100 | Cc1ccc2c(c1)N(CC(=O)NC(C)(C)C)C(=O)C(Br)CC2CC1CCCCC1 (stereo not given) | 166 to 170
